Measurements: ChEMBL document CHEMBL1201862, “PubChem BioAssay data set” (2004)
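Results reflect a 48-hour exposure of cells in 96-well plates to compound at five concentrations. Abbreviation: GI50, concentration required for 50% inhibition of growth.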 Active and inactive are the calls of the source. Rule as the data show it: active = GI50 up to about 1.1 µM and inactive = higher.

Tests used:
Experiment in all cases: inhibition of tumour cell growth, NCI panel, 48 h
786-0 = test system: 786-0
MDA-MB-435 = test system: MDA-MB-435
A498 = test system: A498
HOP-62 = test system: HOP-62
SF-268 = test system: SF-268
SNB-19 = test system: SNB-19
SK-OV-3 = test system: SK-OV-3
OVCAR-5 = test system: OVCAR-5
NCI-H23 = test system: NCI-H23
HCC 2998 = test system: HCC 2998
CAKI-1 = test system: CAKI-1
SF-539 = test system: SF-539
HT-29 = test system: HT-29
M14 = test system: M14
UACC-257 = test system: UACC-257
SK-MEL-28 = test system: SK-MEL-28
CCRF-CEM = test system: CCRF-CEM
BT-549 = test system: BT-549
IGROV-1 = test system: IGROV-1
ACHN = test system: ACHN
COLO 205 = test system: COLO 205
UO-31 = test system: UO-31
MOLT-4 = test system: MOLT-4
HL-60 = test system: HL-60
U-251 = test system: U-251
RPMI-8226 = test system: RPMI-8226
Hs-578T = test system: Hs-578T
RXF 393 = test system: RXF 393
SK-MEL-2 = test system: SK-MEL-2
T47D = test system: T47D
HCT-116 = test system: HCT-116
SR = test system: SR
K562 = test system: K562
SNB-75 = test system: SNB-75
NCI/ADR-RES = test system: NCI/ADR-RES
MCF7 = test system: MCF7
HCT-15 = test system: HCT-15
NCI-H522 = test system: NCI-H522
KM12 = test system: KM12
SN12C = test system: SN12C
NCI-H460 = test system: NCI-H460
SK-MEL-5 = test system: SK-MEL-5
SW-620 = test system: SW-620
SF-295 = test system: SF-295
EKVX = test system: EKVX
Malme-3M = test system: Malme-3M
LOX IMVI = test system: LOX IMVI
MDA-MB-231 = test system: MDA-MB-231
DU-145 = test system: DU-145
HOP-92 = test system: HOP-92
PC-3 = test system: PC-3
OVCAR-8 = test system: OVCAR-8
A549 = test system: A549
NCI-H226 = test system: NCI-H226
TK-10 = test system: TK-10
OVCAR-3 = test system: OVCAR-3
UACC-62 = test system: UACC-62
OVCAR-4 = test system: OVCAR-4
MDA-N = test system: MDA-N

Measured: GI50

CCOC(=O)C(NC(=O)Nc1ccc(C)cc1)(OCC)C(F)(F)F (centres undefined)
inactive: 786-0 > 100 µM | MDA-MB-435 > 100 µM | A498 53.8 µM | HOP-62 26.5 µM | SF-268 > 100 µM | SNB-19 > 100 µM | SK-OV-3 > 100 µM | OVCAR-5 > 100 µM | NCI-H23 > 100 µM | HCC 2998 > 100 µM | CAKI-1 1.18 µM | SF-539 > 100 µM | HT-29 > 100 µM | M14 > 100 µM | UACC-257 > 100 µM | SK-MEL-28 > 100 µM | CCRF-CEM > 100 µM | BT-549 > 100 µM | IGROV-1 > 100 µM | ACHN 56.5 µM | COLO 205 > 100 µM | UO-31 54.1 µM | MOLT-4 > 100 µM | HL-60 64.4 µM | U-251 > 100 µM | RPMI-8226 > 100 µM | Hs-578T 71.4 µM | RXF 393 > 100 µM | SK-MEL-2 > 100 µM | T47D > 100 µM | HCT-116 > 100 µM | SR 88.9 µM | K562 > 100 µM | SNB-75 > 100 µM | NCI/ADR-RES 42.3 µM

CCOC(=O)c1c(OCC)[nH]c(=O)c(C(c2ccc(F)cc2)c2c(O)c(C(=O)OCC)c(OCC)[nH]c2=O)c1O
18.4 µM: HCT-15
inactive: MCF7 20.4 µM | 786-0 16.4 µM | MDA-MB-435 17.6 µM | A498 11.4 µM | NCI-H522 18.6 µM | KM12 16.9 µM | HOP-62 13 µM | SN12C 14.7 µM | NCI-H460 16.4 µM | SK-MEL-5 12.8 µM | SF-268 14.6 µM | SNB-19 17.1 µM | OVCAR-5 29 µM | NCI-H23 19.5 µM | SW-620 17.3 µM | HCC 2998 18.1 µM | CAKI-1 18.9 µM | SF-539 10 µM | SF-295 17.7 µM | HT-29 16.1 µM | M14 24.6 µM | EKVX 7.06 µM | UACC-257 14.8 µM | Malme-3M 8.32 µM | LOX IMVI 16.6 µM | SK-MEL-28 11.9 µM | MDA-MB-231 12.6 µM | CCRF-CEM 33.1 µM | BT-549 9.71 µM | DU-145 11.1 µM | HOP-92 1.46 µM | PC-3 15.3 µM | IGROV-1 14.9 µM | ACHN 16.3 µM | OVCAR-8 14 µM | COLO 205 25.9 µM | A549 14.8 µM | UO-31 12.8 µM | MOLT-4 20.1 µM | HL-60 17.2 µM | U-251 15.2 µM | RPMI-8226 16.1 µM | NCI-H226 9.82 µM | Hs-578T 20.8 µM | RXF 393 4.28 µM | TK-10 25.2 µM | SK-MEL-2 16.6 µM | T47D 4.44 µM | OVCAR-3 15.4 µM | HCT-116 25.7 µM | SR 10.5 µM | K562 16.5 µM | UACC-62 15.6 µM | OVCAR-4 14.6 µM | NCI/ADR-RES 24.1 µM

Cc1ccc(N2CCN(CCC(=O)O)CC2)cc1
> 100 µM: HCT-15
active: HL-60 0.834 µM
inactive: MCF7 > 100 µM | 786-0 > 100 µM | MDA-MB-435 > 100 µM | A498 > 100 µM | NCI-H522 > 100 µM | KM12 > 100 µM | HOP-62 > 100 µM | SN12C > 100 µM | NCI-H460 > 100 µM | SK-MEL-5 > 100 µM | SF-268 > 100 µM | SNB-19 > 100 µM | SK-OV-3 > 100 µM | OVCAR-5 > 100 µM | NCI-H23 > 100 µM | SW-620 > 100 µM | CAKI-1 > 100 µM | SF-539 > 100 µM | SF-295 > 100 µM | HT-29 > 100 µM | M14 > 100 µM | EKVX > 100 µM | UACC-257 > 100 µM | Malme-3M > 100 µM | LOX IMVI > 100 µM | SK-MEL-28 > 100 µM | MDA-MB-231 > 100 µM | CCRF-CEM 52.7 µM | BT-549 > 100 µM | DU-145 > 100 µM | HOP-92 > 100 µM | PC-3 > 100 µM | IGROV-1 > 100 µM | ACHN > 100 µM | OVCAR-8 > 100 µM | COLO 205 > 100 µM | A549 > 100 µM | UO-31 > 100 µM | U-251 > 100 µM | RPMI-8226 > 100 µM | NCI-H226 > 100 µM | Hs-578T > 100 µM | RXF 393 > 100 µM | TK-10 > 100 µM | SK-MEL-2 > 100 µM | T47D > 100 µM | OVCAR-3 > 100 µM | HCT-116 > 100 µM | SR 16.9 µM | K562 2.94 µM | UACC-62 > 100 µM | OVCAR-4 > 100 µM | SNB-75 > 100 µM | NCI/ADR-RES > 100 µM

c1cc2c(c(-c3c4ccccc4nc4ccccc34)c1)CC1(CC2)OCCO1
inactive: MCF7 > 100 µM | 786-0 > 100 µM | MDA-MB-435 > 100 µM | A498 > 100 µM | NCI-H522 > 100 µM | KM12 > 100 µM | HOP-62 > 100 µM | SN12C > 100 µM | NCI-H460 > 100 µM | SK-MEL-5 > 100 µM | SF-268 > 100 µM | SNB-19 > 100 µM | SK-OV-3 > 100 µM | OVCAR-5 > 100 µM | NCI-H23 > 100 µM | SW-620 > 100 µM | HCC 2998 > 100 µM | CAKI-1 > 100 µM | SF-539 > 100 µM | SF-295 > 100 µM | M14 > 100 µM | EKVX > 100 µM | UACC-257 > 100 µM | Malme-3M > 100 µM | LOX IMVI > 100 µM | SK-MEL-28 > 100 µM | MDA-MB-231 > 100 µM | BT-549 > 100 µM | HOP-92 > 100 µM | PC-3 > 100 µM | IGROV-1 > 100 µM | MDA-N > 100 µM | ACHN > 100 µM | OVCAR-8 > 100 µM | COLO 205 > 100 µM | A549 > 100 µM | UO-31 > 100 µM | MOLT-4 > 100 µM | U-251 > 100 µM | RPMI-8226 > 100 µM | NCI-H226 > 100 µM | RXF 393 > 100 µM | TK-10 > 100 µM | SK-MEL-2 > 100 µM | T47D > 100 µM | OVCAR-3 > 100 µM | HCT-116 > 100 µM | K562 > 100 µM | OVCAR-4 > 100 µM | SNB-75 > 100 µM | NCI/ADR-RES > 100 µM
> 100 µM: HCT-15
